Measured values taken from ChEMBL document CHEMBL1201862, “PubChem BioAssay data set” (2004).
The source made the active and inactive calls.

Columns and labels:
cells [1] = assay: cells
Major prion protein = Major prion protein (Homo sapiens, UniProt P04156); assay type: functional, cell-based
[2] = biological target: Delta-type opioid receptor (Homo sapiens, UniProt P41143); assay: Counterscreen for agonists of heterodimerization of the mu 1 (OPRM1) and delta 1 (OPRD1) opioid receptors: Luminescence-based cell-based high throughput dose response assay to identify agonists of OPRD1 homodimerization. [Related pubchem assays (depositor defined):AID504326, AID504355, AID504692, AID504904, AID504905]; assay type: functional
[3] = biological target: T1, Short transient receptor potential channel 4 (Mus musculus, UniProt Q9QUQ5); assay: mouse TRPC4 channel activators, dose response, cell-based, HEK293 TRPC4/mu-opioid, Fluo-4 calcium (AID 434937); assay type: functional
T1 sequence (Q9QUQ5 whole entry): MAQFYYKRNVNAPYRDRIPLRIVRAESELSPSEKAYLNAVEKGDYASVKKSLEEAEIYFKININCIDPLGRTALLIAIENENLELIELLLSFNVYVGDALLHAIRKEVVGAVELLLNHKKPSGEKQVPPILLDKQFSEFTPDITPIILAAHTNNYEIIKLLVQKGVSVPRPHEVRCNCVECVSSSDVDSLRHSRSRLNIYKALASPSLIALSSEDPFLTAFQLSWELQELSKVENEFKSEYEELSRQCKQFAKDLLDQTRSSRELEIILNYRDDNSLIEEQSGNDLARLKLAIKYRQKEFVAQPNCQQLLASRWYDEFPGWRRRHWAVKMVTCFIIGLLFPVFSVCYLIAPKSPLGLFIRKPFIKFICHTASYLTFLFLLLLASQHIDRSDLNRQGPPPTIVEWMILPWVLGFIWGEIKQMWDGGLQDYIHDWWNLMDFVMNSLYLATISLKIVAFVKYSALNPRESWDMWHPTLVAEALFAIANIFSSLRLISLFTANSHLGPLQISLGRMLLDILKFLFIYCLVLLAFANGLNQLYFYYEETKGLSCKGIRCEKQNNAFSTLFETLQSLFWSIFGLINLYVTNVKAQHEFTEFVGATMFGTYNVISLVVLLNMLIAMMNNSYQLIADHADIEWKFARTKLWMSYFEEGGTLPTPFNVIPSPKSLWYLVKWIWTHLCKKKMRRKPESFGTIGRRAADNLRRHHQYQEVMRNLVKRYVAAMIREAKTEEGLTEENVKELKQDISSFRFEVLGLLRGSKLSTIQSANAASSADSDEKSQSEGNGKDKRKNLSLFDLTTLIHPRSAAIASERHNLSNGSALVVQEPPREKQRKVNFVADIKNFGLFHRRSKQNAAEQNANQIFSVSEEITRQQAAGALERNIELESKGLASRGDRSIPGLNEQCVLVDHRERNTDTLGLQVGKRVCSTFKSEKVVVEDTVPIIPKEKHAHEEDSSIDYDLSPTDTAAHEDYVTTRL

[4] = biological target: 5-hydroxytryptamine receptor 5A (Homo sapiens, UniProt P47898); assay: Counterscreen for agonists of OPRM1-OPRD1 heterodimerization: luminescence-based cell-based high throughput dose response assay to identify agonists of 5-hydroxytryptamine (serotonin) 5A receptor (HTR5A). [Related pubchem assays (depositor defined):AID504326, AID504355, AID504692, AID504904, AID504905]; assay type: functional
Mu-type opioid receptor = Mu-type opioid receptor (Homo sapiens, UniProt P35372); assay: Counterscreen for agonists of heterodimerization of the mu 1 (OPRM1) and delta 1 (OPRD1) opioid receptors: Luminescence-based cell-based high throughput dose response assay to identify agonists of OPRM1 homodimerization.; assay type: functional;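 also: U2OS cells expressing OPRM1 and beta-arrestin as split beta-galactosidase partners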
[5] = inhibitors of HIV Env-driven cell fusion, dose response, cherry-pick (AID 652057); assay type: functional, cell-based
[6] = ZM109 Env clade C HIV-1 fusion inhibitors, dose response, HeLa effector, CEM target cells, luciferase, cherry-pick (AID 652058); assay type: functional, cell-based
[7] = off-target signal loss in HeLa-CEM21 co-culture – HeLa F-luc CTL cells, cherry-picked, counter-screen for HIV-1 Env fusion inhibitor project, dose response (AID 652040); assay type: functional, cell-based;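 also: potency for signal decrease marking cytotoxic or nonspecific inhibition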
[8] = CEM21 lymphoblast cell cytotoxicity, dose response, cytotoxicity control for viral fusion inhibitor project, CellTiter-Glo luminescence, cherry-picked (AID 652042); assay type: functional, cell-based;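 also: potency for signal decrease meaning cytotoxicity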
cells [9] = assay type: functional, cell-based; conditions: HEK-CNG
Galanin receptor type 3 = biological target: T2, Galanin receptor type 3 (Homo sapiens, UniProt O60755); assay: Fluorescence-based cell-based primary high throughput dose response assay to identify antagonists of the Galanin Receptor 3 (GalR3).; assay type: functional
T2 sequence (O60755 whole entry): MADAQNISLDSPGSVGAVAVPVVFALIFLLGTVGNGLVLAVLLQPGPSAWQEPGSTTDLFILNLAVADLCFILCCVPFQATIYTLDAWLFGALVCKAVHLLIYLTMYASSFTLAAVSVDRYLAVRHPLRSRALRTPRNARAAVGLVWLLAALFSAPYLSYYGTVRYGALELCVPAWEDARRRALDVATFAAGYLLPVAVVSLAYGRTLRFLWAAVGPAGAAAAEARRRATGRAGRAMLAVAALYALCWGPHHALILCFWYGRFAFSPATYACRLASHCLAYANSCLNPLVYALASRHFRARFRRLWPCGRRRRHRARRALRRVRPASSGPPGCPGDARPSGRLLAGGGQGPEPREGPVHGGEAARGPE

[10] = biological target: Nuclear receptor subfamily 5 group A member 2 (Homo sapiens, UniProt O00482); assay type: functional, cell-based;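 also: HEK293T cells transfected with LRH-1 and a StAR promoter luciferase reporter; potency for inhibitors that lower LRH-1 driven reporter light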
[11] = StAR promoter reporter inhibition counter-screen, dose response, counter-screen for LRH-1 inverse agonist project, cell-based, luminescence, luciferase reporter (AID 651969); assay type: functional
Steroidogenic factor 1 = Steroidogenic factor 1 (Homo sapiens, UniProt Q13285); assay: Counterscreen for inverse agonists of the liver receptor homolog-1 (LRH-1; NR5A2): Luminescence-based cell-based high throughput dose response assay to identify inverse agonists of the Steroidogenic Factor 1 Nuclear Receptor (SF1; NR5A1).; assay type: functional
[12] = biological target: T3, Type-1 angiotensin II receptor (Homo sapiens, UniProt P30556); assay: AT1 receptor antagonists, dose response, selectivity assay for APJ receptor antagonist project, cell-based, uHTS hits (AID 463214); assay type: functional;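 also: antagonist potency against angiotensin II stimulated AT1 response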
T3 sequence (P30556 whole entry): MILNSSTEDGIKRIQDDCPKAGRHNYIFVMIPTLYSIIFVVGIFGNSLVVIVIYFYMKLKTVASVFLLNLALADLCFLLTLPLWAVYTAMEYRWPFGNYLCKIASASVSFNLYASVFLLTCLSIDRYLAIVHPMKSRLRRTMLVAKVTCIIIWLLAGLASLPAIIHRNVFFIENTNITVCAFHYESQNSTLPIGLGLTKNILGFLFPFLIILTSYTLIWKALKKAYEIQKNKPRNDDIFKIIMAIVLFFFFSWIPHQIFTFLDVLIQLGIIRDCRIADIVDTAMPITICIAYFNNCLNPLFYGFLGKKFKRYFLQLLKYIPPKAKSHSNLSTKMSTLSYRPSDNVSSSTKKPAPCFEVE

Beta-galactosidase = Beta-galactosidase (Escherichia coli, UniProt Q8VNN2); assay: PubChem AID 485352; assay type: functional
[13] = microbe, parasite or virus in culture; assay type: functional; conditions: Mycobacterium tuberculosis
[14] = cytotoxicity toward NIH3T3 fibroblasts, dose response, counter-screen, cell-based, ATP luminescence, mouse fibroblasts (AID 2010); assay type: functional;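 also: cells exposed to compound for about 90 hours before reading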
[15] = inhibitors of intracellular T. cruzi replication, confirmation, NIH3T3 host cells, beta-gal luminescence (AID 2044); assay type: functional, cell-based;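 also: intracellular parasites grown in NIH/3T3 mouse fibroblasts as host cells; luminescent beta-galactosidase reporter signal from transgenic T. cruzi replicating inside host cells; inhibitors lower the luminescence signal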
[16] = biological target: T4, Endoribonuclease toxin MazF (Escherichia coli K-12, UniProt P0AE70); assay: MazF toxin RNase activators, dose response, biochemical, fluorescence, single-stranded RNA substrate, uHTS hits (AID 588481); assay type: functional
T4 sequence (P0AE70 whole entry): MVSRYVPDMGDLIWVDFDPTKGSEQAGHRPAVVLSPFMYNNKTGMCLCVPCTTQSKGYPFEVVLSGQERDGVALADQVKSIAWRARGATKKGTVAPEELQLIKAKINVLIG

[17] = biological target: NAD-dependent protein deacylase sirtuin-5, mitochondrial (Homo sapiens, UniProt Q9NXA8); assay: SIRT5 desuccinylase inhibitors, dose response, biochemical, fluorescence imaging, cherry-pick, set 5 (AID 720591);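 also: desuccinylation of succinyl peptide AMC substrate read as fluorescence after trypsin release; potency of inhibitors that lower fluorescence and may act on trypsin instead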
[18] = biological target: T5, High affinity choline transporter 1 (Homo sapiens, UniProt Q9GZV3); assay: CHT inhibitors, dose response, cell-based, 5-point CRC, membrane potential dye (AID 504840); assay type: functional
T5 sequence (Q9GZV3 whole entry): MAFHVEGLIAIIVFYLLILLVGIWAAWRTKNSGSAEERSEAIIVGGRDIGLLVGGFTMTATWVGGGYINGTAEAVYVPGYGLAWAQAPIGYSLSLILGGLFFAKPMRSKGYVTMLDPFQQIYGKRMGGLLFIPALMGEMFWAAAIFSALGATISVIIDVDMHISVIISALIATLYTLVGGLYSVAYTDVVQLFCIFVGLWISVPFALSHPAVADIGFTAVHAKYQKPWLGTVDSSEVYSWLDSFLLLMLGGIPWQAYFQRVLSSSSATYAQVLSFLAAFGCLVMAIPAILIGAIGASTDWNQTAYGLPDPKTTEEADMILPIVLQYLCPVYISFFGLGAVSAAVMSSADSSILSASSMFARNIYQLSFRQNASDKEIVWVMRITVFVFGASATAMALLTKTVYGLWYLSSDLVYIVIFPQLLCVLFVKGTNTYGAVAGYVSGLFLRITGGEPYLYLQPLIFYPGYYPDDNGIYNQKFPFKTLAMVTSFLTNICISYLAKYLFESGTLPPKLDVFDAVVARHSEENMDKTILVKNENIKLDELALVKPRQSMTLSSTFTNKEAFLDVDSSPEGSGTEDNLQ

CCc1cc2cccc(C)c2nc1SCC(=O)NNC(=O)c1ccco1
IC50 (cells [1]): > 138 µM (inactive) | IC50 (Major prion protein): 3.73 µM (active)

Cc1ccc2c(C)c(C(=O)N(Cc3cccs3)C3CCS(=O)(=O)C3)oc2c1 (centres undefined)
EC50 [2]: 63.6 µM (inactive) | EC50 [3]: 2.66 µM (active) | EC50 [4]: > 92.5 µM (inactive) | EC50 (Mu-type opioid receptor): > 92.5 µM (inactive)

Cc1ccc(S(=O)(=O)N(C)C)cc1NC(=O)C(C)N(C)CCOc1ccc(Cl)cc1 (centres undefined)
AC50 [5]: 18.7 µM (active) | AC50 [6]: 1.85 µM (active) | AC50 [7]: 39.3 µM (active) | AC50 [8]: 57 µM (active)

CCOC(=O)Cc1csc(NC(=O)c2cc(=O)c3ccccc3o2)n1
EC50 (cells [9]): > 29.9 µM (inactive) | IC50 (Galanin receptor type 3): 3.82 µM (active)

Cc1ccc(NC(=O)COC(=O)C(NS(=O)(=O)c2ccc(Cl)cc2)C(C)O)c(Br)c1 (centres undefined)
IC50 [10]: 35.9 µM (inactive) | IC50 [11]: 35.9 µM (inactive) | IC50 (Steroidogenic factor 1): 1.33 µM (active)

CCCc1cc(=O)oc2c(C)c(OCC(=O)NC3CC(C)(C)NC(C)(C)C3)ccc12
IC50 [10]: 35.9 µM (inactive) | IC50 [11]: 35.9 µM (inactive) | IC50 (Steroidogenic factor 1): 0.443 µM (active)

Cc1cc(C)nc(NS(=O)(=O)c2ccc(NC(=O)CSc3nc(O)c(C#N)c(-c4ccccc4)n3)cc2)n1
IC50 (cells [1]): > 138 µM (inactive) | IC50 (Major prion protein): 6.28 µM (active)

O=C(Cn1nnc2ccccc21)OCC(=O)c1ccc(Cl)c(Cl)c1
IC50 [12]: 13.3 µM (active) | EC50 (Beta-galactosidase): > 40 µM (inactive)

COCCN(C(=O)C1CC(=O)N(Cc2ccccc2)C1)c1nc(-c2ccc([N+](=O)[O-])cc2)cs1 (centres undefined)
CC50 [13]: > 40 µM (active) | EC50 [2]: > 92.5 µM (inactive) | EC50 [4]: > 92.5 µM (inactive) | EC50 (Mu-type opioid receptor): 22.9 µM (inactive)

Cc1cc(C)c2sc(NC(=O)c3ccc([N+](=O)[O-])o3)nc2c1
EC50 [14]: > 60 µM (not active) | EC50 [15]: 642 nM (active) | IC50 [10]: 35.8 µM (inactive) | IC50 [11]: 35.8 µM (inactive) | IC50 (Steroidogenic factor 1): 1.89 µM (active)

CC1SC(C)C(=O)N(CC(=O)Nc2ccc3c(c2)OCO3)C1=O (centres undefined)
IC50 [10]: 35.9 µM (inactive) | IC50 [11]: 35.9 µM (inactive) | IC50 (Steroidogenic factor 1): 35.9 µM (inactive)

COc1ccc(S(=O)(=O)NNc2nc(C)cc(C)n2)cc1[N+](=O)[O-]
IC50 [12]: 36.7 µM (not active) | EC50 (Beta-galactosidase): > 40 µM (inactive)

CCOC(=O)CSc1ccc2ccccc2n1
IC50 (cells [1]): > 138 µM (inactive) | IC50 (Major prion protein): 9.54 µM (active)

CCCN(c1ccc(OCC)cc1)S(=O)(=O)c1ccc2c(c1)NC(=O)CO2
IC50 (cells [1]): > 138 µM (inactive) | IC50 (Major prion protein): 13.1 µM (inactive)

Cc1cccc(OCCC(=O)NCC(c2ccccc2)N(C)C)c1 (centres undefined)
EC50 [2]: > 92.5 µM (inactive) | EC50 [3]: 0.473 µM (active) | EC50 [4]: > 92.5 µM (inactive) | EC50 (Mu-type opioid receptor): > 92.5 µM (inactive)

CC1CC[C+]([N-]NS(=O)(=O)c2ccc([N+](=O)[O-])cc2)CC1
EC50 [16]: > 99 µM (inactive)

COC(=O)[C@@]12C[C@@H](CC(=O)NCc3ccccc3)C(=O)N(Cc3ccccc3)C1=CCC(C)(C)C2
AC50 [17]: 19.1 µM (active)

Cc1ccc(S(=O)(=O)N/N=C/c2ccc3nccnc3c2)cc1
IC50 [12]: > 40 µM (not active) | EC50 (Beta-galactosidase): > 40 µM (inactive)

C=CCc1ccc(O)c(-c2ccc(O)c(CC=C)c2)c1 [HONOKIOL]
IC50 [18]: 12 µM (active)
